Assay results published in patent US20100130359A1 (priority 2007, published 2010).

Columns and labels:
Phytophthora infestans = type: in vivo, Phytophthora infestans on tomato plants; details: 250 ppm active compound, sprayed one day before infection, assessed after 6 days; untreated plants 80% infected
Septoria tritici = test: Protective activity against Septoria leaf blotch of wheat caused by Septoria tritici; type: in vivo, Septoria tritici on wheat seedlings; details: 250 ppm active compound, sprayed six days after inoculation, assessed after 14 days; untreated plants 90% infected
Protocol: The active compounds were prepared as a stock solution comprising 25 mg of active compound which was made up to 10 ml using a mixture of acetone and/or DMSO and the emulsifier Uniperol® EL (wetting agent having emulsifying and dispersing action based on ethoxylated alkylphenols) in a volume ratio of solvent/emulsifier of 99/1. The mixture was then made up to 100 ml with water. This stock solution was diluted with the solvent/emulsifier/water mixture described to the concentration of active compounds stated below. Alternatively, the active compounds were used as a commercial finished formulation and diluted with water to the stated active compound concentration.
Leaves of potted wheat seedlings were inoculated with a spore suspension of the leaf blotch disease Septoria tritici. The test plants were then placed in a greenhouse at temperatures between 20 and 22° C. and a relative atmospheric humidity of close to 100% and then at temperatures between 16 and 18° C. and an atmospheric humidity of about 70% for 4 days. Six days after the inoculation, the plants were sprayed to runoff point with an aqueous active compound solution having the concentration stated below. After the spray coating had dried on, the plants were returned. After 14 days, the extent of the development of the disease was determined visually in % infection of the entire leaf area.

Compound: Cc1nnc(Cl)c(-c2c(F)cc(OCCCN(C)C)cc2F)c1-c1ccc(Cl)cc1 [Compound I-1, (3-{-4-[3-chloro-5-(4-chlorophenyl)-6-methylpyridazin-4-yl]-3,5-difluorophenoxy}propyl)dimethylamine]
- infection of treated tomato plants (late blight), determined visually (Phytophthora infestans): no infection
- infection of the entire leaf area of treated wheat plants, determined visually (Septoria tritici): 10%
